Measurements reported in ChEMBL document CHEMBL1154280, “Identification and characterization of a small molecule inhibitor of Fatty Acid binding proteins” (J Med Chem, 2009).
Active and inactive are the calls of the source. The calls are words filed in the database; no cut-off is given here.

How the values were obtained:
[1] = target: T1, Fatty acid-binding protein, intestinal (Homo sapiens, UniProt P12104); experiment: Displacement of […] 1-anilinonaphthalene 8-sulfonic acid from IFABP expressed in Escherichia coli BL21 (DE3) by fluorescence spectrophotometry
T1 sequence (P12104 whole entry): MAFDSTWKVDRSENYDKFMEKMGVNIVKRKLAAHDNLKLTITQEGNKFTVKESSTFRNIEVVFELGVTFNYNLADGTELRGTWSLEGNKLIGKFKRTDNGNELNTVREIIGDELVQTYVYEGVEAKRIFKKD

[2] = target: Fatty acid-binding protein 5 (Homo sapiens, UniProt Q01469); experiment: Displacement of […] 1-anilinonaphthalene 8-sulfonic acid from EFABP expressed in Escherichia coli BL21 (DE3) by fluorescence spectrophotometry
Fatty acid-binding protein 5, sequence (Q01469 whole entry): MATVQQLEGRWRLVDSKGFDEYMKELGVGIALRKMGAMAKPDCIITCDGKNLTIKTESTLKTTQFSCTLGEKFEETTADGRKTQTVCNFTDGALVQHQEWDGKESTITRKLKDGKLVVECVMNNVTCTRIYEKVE

[3] = target: T2, Peroxisome proliferator-activated receptor gamma (Mus musculus) (UniProt P37238); experiment: Binding affinity to PPARgamma in C57BL/6J mouse macrophages assessed as increase in CD36 mRNA level at 500 nM after 48 hrs by real-time PCR analysis
T2 sequence (whole entry): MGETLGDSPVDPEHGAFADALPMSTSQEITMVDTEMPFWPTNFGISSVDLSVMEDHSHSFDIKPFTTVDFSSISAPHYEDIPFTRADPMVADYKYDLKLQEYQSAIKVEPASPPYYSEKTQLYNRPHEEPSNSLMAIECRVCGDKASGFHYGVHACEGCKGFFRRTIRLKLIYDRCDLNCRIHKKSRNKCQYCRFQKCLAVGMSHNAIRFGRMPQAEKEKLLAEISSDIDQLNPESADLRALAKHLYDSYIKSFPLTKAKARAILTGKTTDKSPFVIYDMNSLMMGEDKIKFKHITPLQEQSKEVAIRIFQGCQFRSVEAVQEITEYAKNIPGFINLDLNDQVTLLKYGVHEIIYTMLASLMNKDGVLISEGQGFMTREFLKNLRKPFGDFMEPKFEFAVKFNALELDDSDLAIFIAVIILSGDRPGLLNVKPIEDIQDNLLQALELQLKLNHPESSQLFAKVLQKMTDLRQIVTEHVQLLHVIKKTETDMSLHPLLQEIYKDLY

[4] = target: T3, Fatty acid-binding protein, liver (Homo sapiens, UniProt P07148); experiment: Displacement of […] 1-anilinonaphthalene 8-sulfonic acid from LFABP expressed in Escherichia coli BL21 (DE3) by fluorescence spectrophotometry
T3 sequence (P07148 whole entry): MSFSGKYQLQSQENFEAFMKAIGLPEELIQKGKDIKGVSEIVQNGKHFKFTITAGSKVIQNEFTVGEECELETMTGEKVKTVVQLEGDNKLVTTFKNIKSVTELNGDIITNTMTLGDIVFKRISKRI

[5] = target: T2, Peroxisome proliferator-activated receptor gamma (Mus musculus); experiment: Binding affinity to PPARgamma in C57BL/6J mouse macrophages assessed as increase in Cpt1alpha mRNA level at 500 nM after 48 hrs by real-time PCR analysis
[6] = test system: Macrophage; experiment: Antiinflammatory activity in C57BL/6J mouse macrophages assessed as inhibition of LPS-stimulated IL6 release pretreated for 48 hrs before LPS challenge measured after 24 hrs by ELISA; type: functional, cell-based
[7] = target: T4, Fatty acid-binding protein, adipocyte (Homo sapiens, UniProt P15090); experiment: Binding affinity to AFABP in […] C8PA cells assessed as blocked of protein interaction with hormone sensitive lipase at 1 uM after 2 to 4 hrs by FRET analysis; type: cell-based
Target sequence in this assay (P15090 2-132 limits assumed): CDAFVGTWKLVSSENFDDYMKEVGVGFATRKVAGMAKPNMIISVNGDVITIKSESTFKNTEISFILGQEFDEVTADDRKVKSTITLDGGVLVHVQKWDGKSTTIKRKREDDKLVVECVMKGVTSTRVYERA

[8] = target: T4, Fatty acid-binding protein, adipocyte; experiment: Binding affinity to AFABP in forskolin-stimulated […] C8PA cells assessed as blocked of protein interaction with hormone sensitive lipase at 1 uM after 2 to 4 hrs by FRET analysis; type: cell-based
Target sequence in this assay (P15090 2-132 limits assumed): as above

[9] = test system: Macrophage; experiment: Antiinflammatory activity in C57BL/6J mouse macrophages assessed as inhibition of LPS-stimulated TNFalpha release pretreated for 48 hrs before LPS challenge measured after 24 hrs by ELISA; type: functional, cell-based
[10] = target: T4, Fatty acid-binding protein, adipocyte; experiment: Binding affinity to AFABP in […] C8PA cells assessed as blocked of protein interaction with hormone sensitive lipase at 10 uM after 2 to 4 hrs by FRET analysis; type: cell-based
Target sequence in this assay (P15090 2-132 limits assumed): as above

[11] = target: Fatty acid-binding protein, heart (Homo sapiens, UniProt P05413); experiment: Displacement of […] 1-anilinonaphthalene 8-sulfonic acid from HFABP expressed in Escherichia coli BL21 (DE3) by fluorescence spectrophotometry
Fatty acid-binding protein, heart, sequence (P05413 whole entry): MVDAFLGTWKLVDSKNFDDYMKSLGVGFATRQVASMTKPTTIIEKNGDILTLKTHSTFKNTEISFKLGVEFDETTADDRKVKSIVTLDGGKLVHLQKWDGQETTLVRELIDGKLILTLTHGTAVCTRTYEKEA

[12] = test system: Macrophage; experiment: Antiinflammatory activity in C57BL/6J mouse macrophages assessed as inhibition of LPS-stimulated MCP1 release pretreated for 48 hrs before LPS challenge measured after 24 hrs by ELISA; type: functional, cell-based
[13] = target: T5, Peroxisome proliferator-activated receptor gamma (Homo sapiens) (UniProt P37231); experiment: Activation of PPARgamma expressed in african green monkey CV1 cells at 0.5 to 25 uM after 24 hrs by luciferase reporter gene assay; type: cell-based; conditions: CV-1
T5 sequence (whole entry): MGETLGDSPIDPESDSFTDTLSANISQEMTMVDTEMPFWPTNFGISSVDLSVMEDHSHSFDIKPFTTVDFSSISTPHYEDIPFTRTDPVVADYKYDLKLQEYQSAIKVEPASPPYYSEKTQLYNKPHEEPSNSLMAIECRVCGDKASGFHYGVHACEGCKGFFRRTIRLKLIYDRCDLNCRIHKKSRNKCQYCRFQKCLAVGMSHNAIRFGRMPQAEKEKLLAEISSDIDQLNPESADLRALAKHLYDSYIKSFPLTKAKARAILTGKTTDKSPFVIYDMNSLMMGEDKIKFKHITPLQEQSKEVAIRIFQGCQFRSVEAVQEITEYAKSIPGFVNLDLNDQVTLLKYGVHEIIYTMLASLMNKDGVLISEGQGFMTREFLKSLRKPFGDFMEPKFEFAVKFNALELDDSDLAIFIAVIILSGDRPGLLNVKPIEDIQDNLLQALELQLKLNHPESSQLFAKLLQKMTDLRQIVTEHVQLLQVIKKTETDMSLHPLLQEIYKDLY

[14] = target: T4, Fatty acid-binding protein, adipocyte; experiment: Binding affinity to AFABP in forskolin-stimulated […] C8PA cells assessed as blocked of protein interaction with hormone sensitive lipase at 10 uM after 2 to 4 hrs by FRET analysis; type: cell-based
Target sequence in this assay (P15090 2-132 limits assumed): as the sequence (P15090 2-132 limits assumed) above

[15] = target: T4, Fatty acid-binding protein, adipocyte; experiment: Displacement of […] 1-anilinonaphthalene 8-sulfonic acid from AFABP expressed in Escherichia coli BL21 (DE3) by fluorescence spectrophotometry
Target sequence in this assay (P15090 whole entry): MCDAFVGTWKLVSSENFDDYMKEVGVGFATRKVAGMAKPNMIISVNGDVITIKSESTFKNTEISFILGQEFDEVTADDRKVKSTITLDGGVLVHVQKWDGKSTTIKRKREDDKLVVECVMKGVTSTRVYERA

[16] = target: T2, Peroxisome proliferator-activated receptor gamma (Mus musculus); experiment: Binding affinity to PPARgamma in C57BL/6J mouse macrophages assessed as increase in CD36 mRNA level at 5 uM after 48 hrs by real-time PCR analysis
[17] = target: T2, Peroxisome proliferator-activated receptor gamma (Mus musculus); experiment: Binding affinity to PPARgamma in C57BL/6J mouse macrophages assessed as increase in Cpt1alpha mRNA level at 5 uM after 48 hrs by real-time PCR analysis

Structure (SMILES) | Ki [1] | Ki [2] | Activity [3] | Ki [4] | Activity [5] | Activity [6] | Activity [7] | Activity [8] | Activity [9] | Activity [10] | Ki [11] | Activity [12] | Activity [13] | Activity [14] | Ki [15] | Activity [16] | Activity [17]
COC(=O)c1sc(-c2cccs2)cc1NC(=O)/C=C/C(=O)O | 6.57 µM | 3.4 µM | inactive | 8.17 µM | inactive | Active | Active | inactive | Active | Active | 9.07 µM | Active | inactive | Active | 0.67 µM | – | –
CCCCC/C=C/C=C1/C(=O)C=C[C@@H]1C/C=C\CCCC(=O)O | – | – | – | – | – | – | – | – | – | – | – | – | – | – | – | Active | Active
